Among the test systems are UO-31 renal; UACC-257 melanoma; ACHN renal; IGROV1 ovarian; SN12C renal; HL-60(TB) leukemia; M14 melanoma; UACC-62 melanoma; RPMI-8226 leukemia; T-47D breast.
Test in all cases: NCI anticancer screen, dose series, 48 h

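Assay format: 96-well plates, 48-hour exposure. GI50: concentration for 50% inhibition of growth. At the TGI there is no net growth.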

Take `COc1ccc2c(c1)[n+]([O-])c(-c1cccc(Cl)c1)c(N)[n+]2[O-]`: the TGI in the experiment with UO-31 renal is over 100 µM; with UACC-257 melanoma, 64.7 µM; in the experiment with ACHN renal, over 100 µM; in the experiment with IGROV1 ovarian, over 100 µM; in the experiment with SN12C renal, over 100 µM; with HL-60(TB) leukemia, 95.6 µM.

Turning to `O=C(O)CN(c1ccccc1)S(=O)(=O)c1cccc([N+](=O)[O-])c1`, the TGI in the experiment on UO-31 renal, in the experiment with UACC-257 melanoma, in the experiment with ACHN renal, with IGROV1 ovarian, in the experiment with M14 melanoma and in the experiment with SN12C renal was over 100 µM in each case. Also, the TGI with UACC-62 melanoma, in the experiment on HL-60(TB) leukemia and in the experiment with RPMI-8226 leukemia was over 100 µM in each case.

In the case of `O=C(C=Nc1ccccc1C(=O)[O-])c1cccs1.O=C(C=Nc1ccccc1C(=O)[O-])c1cccs1.[Ni+2]`, the TGI in the experiment on UO-31 renal, in the experiment with UACC-257 melanoma, in the experiment on ACHN renal, with IGROV1 ovarian, in the experiment with M14 melanoma and in the experiment with SN12C renal was over 100 µM each time. Besides, the TGI in the experiment with UACC-62 melanoma and in the experiment with HL-60(TB) leukemia was over 100 µM throughout.

`CC1CCC2C(C)C(=O)OC3OC4(C)CCC1C32OO4` (configuration not stated): the TGI in the experiment on UO-31 renal, in the experiment on UACC-257 melanoma, in the experiment on ACHN renal, in the experiment with IGROV1 ovarian, in the experiment on M14 melanoma and in the experiment on SN12C renal was over 100 µM in each case. For the same compound, the TGI in the experiment on UACC-62 melanoma, in the experiment with HL-60(TB) leukemia and with RPMI-8226 leukemia was over 100 µM in each case. Moreover, the GI50 with UACC-257 melanoma, in the experiment with ACHN renal and in the experiment with UACC-62 melanoma was over 100 µM each time.

Regarding `COC(=O)C1CSC(c2csc(CCN)n2)=N1` (configuration not stated), the TGI in the experiment on UO-31 renal, in the experiment on UACC-257 melanoma, in the experiment on ACHN renal, in the experiment with IGROV1 ovarian, in the experiment with M14 melanoma and in the experiment with SN12C renal was over 100 µM each time. In addition, the TGI with UACC-62 melanoma, in the experiment with HL-60(TB) leukemia and in the experiment on RPMI-8226 leukemia was over 100 µM each time.

Regarding `CC(=O)c1ccccc1NC(=O)C(=O)C(C(=O)c1ccc2ccccc2c1)C1OC(=O)c2ccccc21` (configuration not stated), the TGI in the experiment with UO-31 renal is 29.1 µM; in the experiment with UACC-257 melanoma, 61.8 µM; with ACHN renal, over 100 µM; with IGROV1 ovarian, 52.6 µM; in the experiment on M14 melanoma it was 36.6 µM; in the experiment on SN12C renal, 37.9 µM. Moreover, the TGI in the experiment on UACC-62 melanoma worked out at 28.1 µM; with HL-60(TB) leukemia, 43.6 µM; with RPMI-8226 leukemia, 52.7 µM.

As to `CN1C(=O)CC2(C)c3cc(O)cc(Br)c3N(C)C12` (configuration not stated), the TGI in the experiment on UO-31 renal, in the experiment on UACC-257 melanoma, with ACHN renal, with IGROV1 ovarian, with M14 melanoma and in the experiment with SN12C renal was over 100 µM in each case. This compound also returned a TGI in the experiment on UACC-62 melanoma of over 100 µM.

For `Nc1nc(N)c(CCCCc2ccccc2)c(C=O)n1`, the TGI was 45.4 µM in the experiment on UO-31 renal; 33.3 µM in the experiment with UACC-257 melanoma; 51.6 µM with ACHN renal; 38.1 µM with IGROV1 ovarian; 44.1 µM in the experiment with M14 melanoma; 39.1 µM in the experiment on SN12C renal. The figures for the TGI in the experiment with UACC-62 melanoma and in the experiment with RPMI-8226 leukemia were 30.8 µM and 41.2 µM, respectively.

`NC1N=Nc2ccccc21` (configuration not stated): the TGI in the experiment on UO-31 renal, in the experiment on UACC-257 melanoma, in the experiment on ACHN renal, in the experiment on IGROV1 ovarian, with M14 melanoma and with SN12C renal was over 100 µM throughout. The TGI in the experiment with HL-60(TB) leukemia and with RPMI-8226 leukemia was over 100 µM each time.

For `COC(=O)[C@H](CC(C)C)NC(=O)[C@H](Cc1ccccc1)N1CC2C=CC1C2` (some centres not stated), the TGI in the experiment with UO-31 renal, in the experiment with UACC-257 melanoma, in the experiment on ACHN renal, in the experiment on IGROV1 ovarian, in the experiment on M14 melanoma and in the experiment on SN12C renal was over 100 µM in each case. Moreover, the TGI with UACC-62 melanoma was over 100 µM; in the experiment on HL-60(TB) leukemia, over 100 µM; with RPMI-8226 leukemia it was 79.2 µM.

As to `COC(=O)Cc1c([C@@]2(C)CCCC(C)(C)C2)ccc2c1C(=O)OC2`, the TGI came out at 15.3 µM in the experiment with UO-31 renal; 22.8 µM in the experiment with UACC-257 melanoma; 48.2 µM in the experiment with ACHN renal; 47.5 µM with IGROV1 ovarian; 26.1 µM with M14 melanoma; 23 µM with SN12C renal. For the same compound, the TGI in the experiment with UACC-62 melanoma came to 31.4 µM; in the experiment on HL-60(TB) leukemia, 13.3 µM; in the experiment on RPMI-8226 leukemia, 14.6 µM.

With `CC1(C)NC(=O)N(CCCCCCN2C(=O)NC(C)(C)C2=O)C1=O`, the TGI in the experiment with UO-31 renal, in the experiment with UACC-257 melanoma, with ACHN renal, in the experiment with IGROV1 ovarian, with M14 melanoma and in the experiment on SN12C renal was over 100 µM each time. In addition, the TGI in the experiment with UACC-62 melanoma and in the experiment with RPMI-8226 leukemia was over 100 µM in each case.

For `Cc1cc(Cl)nc2ccc(Cc3ccc4nc(Cl)cc(C)c4c3)cc12`, the TGI is over 100 µM in the experiment with UO-31 renal; over 100 µM in the experiment with UACC-257 melanoma; 70.8 µM in the experiment on ACHN renal; over 100 µM in the experiment with IGROV1 ovarian; over 100 µM with M14 melanoma; over 100 µM in the experiment on SN12C renal. For the same compound, the TGI in the experiment with UACC-62 melanoma was over 100 µM; with T-47D breast, 54.8 µM; in the experiment with RPMI-8226 leukemia it was over 100 µM.

On to `CC1(C)CC(=O)C=C(/C=C/Sc2c(Cl)c(Cl)nc(Cl)c2Cl)C1`, for which the GI50 was 10 µM in the experiment with UO-31 renal; 15.6 µM in the experiment with UACC-257 melanoma; 11.1 µM in the experiment with ACHN renal; 4.75 µM in the experiment on IGROV1 ovarian; 11.7 µM in the experiment on M14 melanoma; 4.56 µM in the experiment with SN12C renal. The values for the GI50 in the experiment with UACC-62 melanoma and with RPMI-8226 leukemia were 8.48 µM and 3.41 µM, respectively. Besides, the TGI in the experiment with UO-31 renal was found to be 33.4 µM; with UACC-257 melanoma, 31.8 µM; in the experiment on ACHN renal, 23.3 µM; in the experiment on IGROV1 ovarian it was 84.9 µM; with M14 melanoma, 24.2 µM; in the experiment with SN12C renal it was 16.3 µM. Moreover, the TGI in the experiment on UACC-62 melanoma was found to be 20.8 µM; in the experiment on RPMI-8226 leukemia it was 75.1 µM.

Source of the values: PubChem BioAssay (NCI).
